≈ marks a conversion by molar mass, not a printed value.
Tests used:
Staphylococcus aureus [1] = experiment: Antibacterial activity against methicillin-resistant Staphylococcus aureus N315 assessed as bacterial growth inhibition by serial dilution method; format: functional
Klebsiella pneumoniae = experiment: Antibacterial activity against Klebsiella pneumoniae assessed as bacterial growth inhibition by serial dilution method; format: functional
Staphylococcus aureus [2] = experiment: Antibacterial activity against Staphylococcus aureus assessed as bacterial growth inhibition by serial dilution method; format: functional
Staphylococcus aureus [3] = experiment: Antibacterial activity against Staphylococcus aureus ATCC 29213 assessed as bacterial growth inhibition by serial dilution method; format: functional
Staphylococcus aureus [4] = experiment: Antibacterial activity against Staphylococcus aureus ATCC 25923 assessed as bacterial growth inhibition by serial dilution method; format: functional
Pseudomonas aeruginosa [5] = experiment: Antibacterial activity against Pseudomonas aeruginosa ATCC 27853 assessed as bacterial growth inhibition by serial dilution method; format: functional
Enterococcus faecalis = experiment: Antibacterial activity against Enterococcus faecalis assessed as bacterial growth inhibition by serial dilution method; format: functional
Acinetobacter baumannii = experiment: Antibacterial activity against Acinetobacter baumannii assessed as bacterial growth inhibition by serial dilution method; format: functional
Pseudomonas aeruginosa [6] = experiment: Antibacterial activity against Pseudomonas aeruginosa assessed as bacterial growth inhibition by serial dilution method; format: functional
Candida tropicalis = experiment: Antifungal activity against Candida tropicalis assessed as inhibition of fungal growth; format: functional
Escherichia coli [7] = experiment: Antibacterial activity against Escherichia coli ATCC 25922 assessed as bacterial growth inhibition by serial dilution method; format: functional
Escherichia coli [8] = experiment: Antibacterial activity against Escherichia coli assessed as bacterial growth inhibition by serial dilution method; format: functional
Aspergillus fumigatus = experiment: Antifungal activity against Aspergillus fumigatus assessed as inhibition of fungal growth; format: functional
[9] = Cytotoxicity against human HaCaT cells assessed as cell viability at 12.5 ug/ml by CCK-8 assay relative to control; format: toxicity, cell-based; conditions: at 12.5 µg/mL, read-out: Activity
[10] = Cytotoxicity against human HaCaT cells assessed as cell viability at 50 ug/ml by CCK-8 assay relative to control; format: toxicity, cell-based; conditions: at 50 µg/mL, read-out: Activity

Compound | MIC (Staphylococcus aureus [1]) | MIC (Klebsiella pneumoniae) | MIC (Staphylococcus aureus [2]) | MIC (Staphylococcus aureus [3]) | MIC (Staphylococcus aureus [4]) | MIC (Pseudomonas aeruginosa [5]) | MIC (Enterococcus faecalis) | MIC (Acinetobacter baumannii) | MIC (Pseudomonas aeruginosa [6]) | MIC (Candida tropicalis) | MIC (Escherichia coli [7]) | MIC (Escherichia coli [8]) | MIC (Aspergillus fumigatus) | viability at 12.5 ug/ml [9] | viability at 50 ug/ml [10]
O=C(O)c1cn(C2CC2)c2cc(N3CCNCC3)c(F)cc2c1=O [CIPROFLOXACIN] | 2 µg/mL (≈ 6.04 µM) | 2 µg/mL (≈ 6.04 µM) | 2 µg/mL (≈ 6.04 µM) | 0.5 µg/mL (≈ 1.51 µM) | 2 µg/mL (≈ 6.04 µM) | 1 µg/mL (≈ 3.02 µM) | 1 µg/mL (≈ 3.02 µM) | – | – | – | – | – | – | – | –
CCc1cnc(N2CCN(c3cc4c(cc3F)c(=O)c(C(=O)O)cn4C3CC3)CC2)nc1 | 128 µg/mL (≈ 293 µM) | 256 µg/mL (≈ 585 µM) | 1 µg/mL (≈ 2.29 µM) | 64 µg/mL (≈ 146 µM) | 8 µg/mL (≈ 18.3 µM) | 64 µg/mL (≈ 146 µM) | 64 µg/mL (≈ 146 µM) | 64 µg/mL (≈ 146 µM) | 4 µg/mL (≈ 9.14 µM) | 2 µg/mL (≈ 4.57 µM) | 4 µg/mL (≈ 9.14 µM) | 8 µg/mL (≈ 18.3 µM) | – | – | –
CCn1cc(C(=O)O)c(=O)c2cc(F)c(N3CCN(c4ncc(OC)cn4)CC3)cc21 | 1 µg/mL (≈ 2.34 µM) | 64 µg/mL (≈ 150 µM) | 2 µg/mL (≈ 4.68 µM) | 8 µg/mL (≈ 18.7 µM) | 32 µg/mL (≈ 74.9 µM) | 128 µg/mL (≈ 299 µM) | 1 µg/mL (≈ 2.34 µM) | 128 µg/mL (≈ 299 µM) | 32 µg/mL (≈ 74.9 µM) | – | 2 µg/mL (≈ 4.68 µM) | 64 µg/mL (≈ 150 µM) | 2 µg/mL (≈ 4.68 µM) | – | –
CCn1cc(C(=O)O)c(=O)c2cc(F)c(N3CCN(c4nccc(C(F)(F)F)n4)CC3)cc21 | > 256 µg/mL | 128 µg/mL (≈ 275 µM) | > 256 µg/mL | 128 µg/mL (≈ 275 µM) | 256 µg/mL (≈ 550 µM) | > 256 µg/mL | 64 µg/mL (≈ 138 µM) | 128 µg/mL (≈ 275 µM) | 128 µg/mL (≈ 275 µM) | – | 256 µg/mL (≈ 550 µM) | > 256 µg/mL | – | – | –
CCn1cc(C(=O)O)c(=O)c2cc(F)c(N3CCN(c4ncc(C)cn4)CC3)cc21 | 8 µg/mL (≈ 19.4 µM) | 2 µg/mL (≈ 4.86 µM) | 4 µg/mL (≈ 9.72 µM) | 4 µg/mL (≈ 9.72 µM) | 64 µg/mL (≈ 156 µM) | 128 µg/mL (≈ 311 µM) | 2 µg/mL (≈ 4.86 µM) | 128 µg/mL (≈ 311 µM) | 4 µg/mL (≈ 9.72 µM) | – | 2 µg/mL (≈ 4.86 µM) | 16 µg/mL (≈ 38.9 µM) | 2 µg/mL (≈ 4.86 µM) | – | –
CCn1cc(C(=O)O)c(=O)c2cc(F)c(N3CCN(c4ncc(F)cn4)CC3)cc21 | 64 µg/mL (≈ 154 µM) | 128 µg/mL (≈ 308 µM) | 4 µg/mL (≈ 9.63 µM) | 16 µg/mL (≈ 38.5 µM) | 16 µg/mL (≈ 38.5 µM) | 256 µg/mL (≈ 616 µM) | 4 µg/mL (≈ 9.63 µM) | > 256 µg/mL | 32 µg/mL (≈ 77 µM) | – | 128 µg/mL (≈ 308 µM) | 16 µg/mL (≈ 38.5 µM) | – | – | –
Cc1cnc(N2CCN(c3cc4c(cc3F)c(=O)c(C(=O)O)cn4C3CC3)CC2)nc1 | 256 µg/mL (≈ 605 µM) | > 256 µg/mL | 128 µg/mL (≈ 302 µM) | 64 µg/mL (≈ 151 µM) | 2 µg/mL (≈ 4.72 µM) | 256 µg/mL (≈ 605 µM) | 4 µg/mL (≈ 9.45 µM) | 128 µg/mL (≈ 302 µM) | 2 µg/mL (≈ 4.72 µM) | – | 8 µg/mL (≈ 18.9 µM) | 64 µg/mL (≈ 151 µM) | – | – | –
O=C(O)c1cn(C2CC2)c2cc(N3CCN(c4ncc(Br)cn4)CC3)c(F)cc2c1=O | 128 µg/mL (≈ 262 µM) | 128 µg/mL (≈ 262 µM) | 16 µg/mL (≈ 32.8 µM) | 8 µg/mL (≈ 16.4 µM) | 16 µg/mL (≈ 32.8 µM) | 32 µg/mL (≈ 65.5 µM) | 128 µg/mL (≈ 262 µM) | 32 µg/mL (≈ 65.5 µM) | 16 µg/mL (≈ 32.8 µM) | – | 128 µg/mL (≈ 262 µM) | 64 µg/mL (≈ 131 µM) | – | – | –
O=C(O)c1cn(C2CC2)c2cc(N3CCN(c4ncccn4)CC3)c(F)cc2c1=O | 16 µg/mL (≈ 39.1 µM) | 64 µg/mL (≈ 156 µM) | 4 µg/mL (≈ 9.77 µM) | 32 µg/mL (≈ 78.2 µM) | 64 µg/mL (≈ 156 µM) | 32 µg/mL (≈ 78.2 µM) | 2 µg/mL (≈ 4.88 µM) | > 256 µg/mL | 8 µg/mL (≈ 19.5 µM) | – | 1 µg/mL (≈ 2.44 µM) | 8 µg/mL (≈ 19.5 µM) | 1 µg/mL (≈ 2.44 µM) | > 90% | 70%
O=C(O)c1cn(C2CC2)c2cc(N3CCN(c4nccc(C(F)(F)F)n4)CC3)c(F)cc2c1=O | 64 µg/mL (≈ 134 µM) | 128 µg/mL (≈ 268 µM) | 128 µg/mL (≈ 268 µM) | 64 µg/mL (≈ 134 µM) | 128 µg/mL (≈ 268 µM) | 128 µg/mL (≈ 268 µM) | 8 µg/mL (≈ 16.8 µM) | > 256 µg/mL | 64 µg/mL (≈ 134 µM) | – | 32 µg/mL (≈ 67 µM) | 128 µg/mL (≈ 268 µM) | – | – | –

Reference: ChEMBL document CHEMBL5104131, “Pyrimidine-conjugated fluoroquinolones as new potential broad-spectrum antibacterial agents” (Bioorg Med Chem Lett, 2022)
